Experiment [1] deals with untransduced control cells. Nature of the experiment: Degranulation assay and cytokine production, untransduced control cells. Particulars: TPO administration. It counts as cell-based, human. How it is done:
(§1) To examine degranulation, cells were washed after two hours and stained with anti-CD107a (H4A3) (BioLegend). To assay cytokine production, GolgiPlug and GolgiStop (BD Biosciences) were added at manufacturer's recommended concentrations within the first hour of co-culture with K562. After 4 hours, cells were washed and stained for cell surface markers, then stained intracellularly with mAb recognizing TNF-α (Mab 11) and IFN-γ (B27) (BD Biosciences).

A further experiment concerns GFP+ MPL+ NK cells. Nature of the experiment: Degranulation assay and cytokine production, c-MPL-transduced primary NK cells with K562. Type of experiment: cell-based, human. Here is the method: as §1
For the next experiment, the system named is K562. Nature of the experiment: Flow cytometry based killing assay, c-MPL+ NK-92 effectors vs K562. To be noted: c-MPL+ NK-92 with TPO administration. It counts as cell-based, human. How it is done:
The target cells were labeled with 1 μM cell trace violet in some experiments (Thermo Fisher Scientific). The effector and target cells were incubated together in duplicate wells at specific E:T ratio in complete medium without cytokines for 4 hours (total cell number: 200,000 to 250,000 per well in 96-well plate). 7-AAD and Sphero AccuCount Fluorescent particles (Spherotech, IL) were added before analysis by flow cytometry. The absolute number of viable 7-AAD negative target cells was calculated according to bead numbers added (Cooper et al., Leukemia 32:1970-1983, 2018). The percentage of dead cells was calculated relative to target cell only control wells.

Another experiment relates to GFP+ MPL+ cells. Nature of the experiment: Persistence of transduced human NK cells in immunodeficient mice. It counts as in vivo, NSG mice. Particulars: for average percentage of GFP+ MPL+ cells amongst the recovered human cells: TPO 50 μg/kg daily, 4 days, about 10% of injected cells. An excerpt: Both populations were then mixed at a 1:1 ratio immediately before injection intravenously into NSG mice (such that GFP^+ MPL^+ cells and GFP^+ CD34^+ cells each constituted ˜10% of the mixed cells). Each mouse received 2.2×10^7 total human NK cells. […] MPL-transduced NK cells were identified as GFP^+ MPL^+ while CD34-transduced NK cells were gated as GFP^+ CD34^+. The frequency of transduced cells is presented (FIG. 14A) as a percentage of MHC-I^+ human cells isolated from organs or (FIG. 14B) as percent of total live mononuclear cells recovered from each organ. The legend applies to both FIGS. 14A and 14B. Data from 9 mice per group are shown with NK cells derived from 3 human blood donors. Data was normalized to account for unequal transduction or subset mixing before injection using the equation: […]
Persistence of transduced human NK cells in immunodeficient mice: NK cells from human PBMC were transduced with matched lentiviral vectors encoding GFP/MPL or GFP/CD34 then mixed at a 1:1 ratio and injected intravenously into NSG mice (2.2×10^7 total cells/mouse). […] After euthanasia, blood was drawn by cardiac puncture, bone marrow was harvested by flushing the tibia, and spleen, liver, and lung fragments were processed by grinding over 70 μm nylon mesh. Blood, bone marrow, lung, and spleen samples received 1-2 rounds of 5 minute incubations with ACK lysis buffer (Quality biological). Liver samples were purified by centrifugation over 35% Percoll (Sigma) solution in RPMI. The presence of transduced human cells was quantified in various organs via flow cytometry using antibodies to human MHC class I (W6/32) (BioLegend), c-MPL (1.6.1), CD34 (581) (BD BioSciences), GFP-fluorescence, and Live/Dead Aqua viability dye (Thermo Fisher).

The test system of a further experiment is GFP+ c-MPL+ NK cells. Nature of the experiment: Competitive expansion of c-MPL-transduced primary NK cells. Type of experiment: cell-based, human. To be noted: day 6. Here is the method: In vitro cell expansion cultures: The NK-92 (5×10^4 cell/ml) and KHYG-1 (1×10^4 cell/ml) cells were cultured in 1 ml of complete medium in 24-well plate. […] Trypan blue negative cells were counted every other day. […] For competitive primary NK and T cell expansion assay, all transduced cells (5×10^5/ml for NK and 4×10^5/ml for T cell) containing a mixture of GFP positive (transduced) and GFP negative (untransduced) cells were plated on day 0. Fresh medium with appropriate supplements was replaced every other day for NK cells and only on day 3 for T cell experiment. Viable cells were counted and percentage of GFP^+ cells was acquired on indicated days (NK: day 4 and 6, T: day 3 and 6). The fold change of GFP^+ cells was calculated by multiplying the counted cell number times the fraction GFP^+.

The test system of the next experiment is c-MPL+ NK-92 cells. Nature of the experiment: Flow cytometry of cell signaling and anti-apoptotic proteins, c-MPL+ NK-92. Type of experiment: cell-based, human. Here is the method:
Staining was performed in phosphate-buffered saline (PBS) with 2% FBS and 2 mM EDTA and analyzed on a BD LSRFortessa machine. If intracellular staining was required, BD cytofix/cytoperm (BD Biosciences) was applied for cell fixation and permeabilization after surface staining. The apoptosis assay was performed using PE annexinV apoptosis detection kit (BD Biosciences). The data were analyzed on FlowJo software.
Expression of target proteins was evaluated afterward by flow cytometry as described above.
(A flow cytometer gives signals particle by particle.)

“TPO: recombinant human thrombopoietin, ligand of the c-MPL receptor; 50 ng/ml rhTPO (R&D)”: the “degranulation or cytokine production of untransduced control cells” value in experiment [1] is “no measured effects”. Moreover, the “degranulation in GFP+ MPL+ NK cells (CD107a)” value with GFP+ MPL+ NK cells (TPO added to 25 U/ml IL-2, 4 days, K562 1:1) amounted to 83%. In addition, in the experiment with GFP+ MPL+ NK cells (TPO added to 25 U/ml IL-2 vs 25 U/ml IL-2 alone, co-cultured with K562), the “percent of GFP MPL transduced NK cells that produced IFN-γ or TNF-α” value was “considerably augmented”. For the same substance, in the experiment on K562, the “killing of K562 tumor targets” value is on record as “no significant killing augmentation”. Besides, the “GFP+ MPL+ cells as percentage of total live cells from each organ, vs GFP+ CD34+ control cells” value with GFP+ MPL+ cells (TPO-treated mice) was “significantly more”. Further, the “average percentage of GFP+ MPL+ cells amongst the recovered human cells” value in the experiment with GFP+ MPL+ cells (blood and spleen) was determined as 15%; with GFP+ MPL+ cells (liver and lung) it was 20%. In addition, the “fold change of GFP+ c-MPL+ NK cells” value was 24.3 fold in the experiment with GFP+ c-MPL+ NK cells (TPO plus 10 U/ml LD IL-2) and 34.1 fold in the experiment on GFP+ c-MPL+ NK cells (TPO+25 U/ml IL-2). The pS6 expression in the experiment on c-MPL+ NK-92 cells (TPO added to LD IL-2) was determined as 11.84. Further, in the experiment on c-MPL+ NK-92 cells (TPO combined with LD IL-2), the “STAT5 phosphorylation, additivity” value is given as “No additive effects”. The pSTAT5 expression entry in the experiment on c-MPL+ NK-92 cells (TPO vs no IL-2 control, comparable to LD IL-2) is “appeared to increase pSTAT5 expression”. For the same substance, in the experiment with c-MPL+ NK-92 cells (TPO, 24 hours, no IL-2), the “Bcl-2 RMFI” value was found to be 64.54. For the same substance, the “Bcl-xL RMFI” value in the experiment on c-MPL+ NK-92 cells (TPO, 24 hours, no IL-2) stood at 4.52. Besides, in the experiment on c-MPL+ NK-92 cells (cultures supplemented with IL-2 or TPO, 15 minutes), the “phospho-p44/42 MAPK expression” value was “No alteration”.

The values above are taken from patent US20240024479A1, “NK CELLS OR T CELLS EXPRESSING CHIMERIC HEMATOPOIETIC GROWTH FACTOR RECEPTORS AND METHODS OF USE” (The United States of America, as represented by the …, priority 2020, published 2024).
